{"source": "paper PMC6572064", "about": "“Discovery of 2-(1-(3-(4-Chloroxyphenyl)-3-oxo- propyl)pyrrolidine-3-yl)-1H-benzo[d]imidazole-4-carboxamide: A Potent Poly(ADP-ribose) Polymerase (PARP) Inhibitor for Treatment of Cancer” (Molecules, 2019)", "key": {"[1]": {"biological_target": "T1, PARP-1 (Homo sapiens, UniProt P09874)", "T1 construct": "purchased BPS Bioscience 80569", "T1 sequence (P09874 whole entry)": "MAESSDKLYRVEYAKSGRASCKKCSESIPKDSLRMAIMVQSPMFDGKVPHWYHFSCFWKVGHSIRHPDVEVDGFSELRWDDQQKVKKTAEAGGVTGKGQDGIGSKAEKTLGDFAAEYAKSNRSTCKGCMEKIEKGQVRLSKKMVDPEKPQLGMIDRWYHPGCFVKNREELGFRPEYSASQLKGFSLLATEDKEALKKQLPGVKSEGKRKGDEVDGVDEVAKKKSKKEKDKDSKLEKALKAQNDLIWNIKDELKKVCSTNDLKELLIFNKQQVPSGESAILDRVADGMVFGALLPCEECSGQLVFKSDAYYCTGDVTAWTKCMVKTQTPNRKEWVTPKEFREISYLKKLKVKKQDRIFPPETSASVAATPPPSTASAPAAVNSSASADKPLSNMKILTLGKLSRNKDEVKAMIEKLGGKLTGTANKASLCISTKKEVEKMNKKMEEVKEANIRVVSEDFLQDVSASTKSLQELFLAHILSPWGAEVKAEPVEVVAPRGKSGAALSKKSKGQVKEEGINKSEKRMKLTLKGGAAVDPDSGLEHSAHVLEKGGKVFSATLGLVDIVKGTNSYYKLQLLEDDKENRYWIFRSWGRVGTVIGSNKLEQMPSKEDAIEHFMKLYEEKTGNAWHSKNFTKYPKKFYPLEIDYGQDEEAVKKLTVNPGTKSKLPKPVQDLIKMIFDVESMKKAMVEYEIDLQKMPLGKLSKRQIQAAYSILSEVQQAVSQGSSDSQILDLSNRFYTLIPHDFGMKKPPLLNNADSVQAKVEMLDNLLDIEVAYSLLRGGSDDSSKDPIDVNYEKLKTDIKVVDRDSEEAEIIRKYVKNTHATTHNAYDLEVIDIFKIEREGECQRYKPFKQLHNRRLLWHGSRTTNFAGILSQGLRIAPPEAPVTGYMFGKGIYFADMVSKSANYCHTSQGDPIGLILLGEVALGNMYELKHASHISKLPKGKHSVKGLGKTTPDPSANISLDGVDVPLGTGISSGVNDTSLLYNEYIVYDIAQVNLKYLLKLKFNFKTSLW", "assay": "PARP-1 inhibition assay (PARP-1 Chemiluminescent Assay Kit, BPS Bioscience)", "format": "biochemical", "conditions": "10 nM compound", "method": "(§1) The PARP-1 and PARP-2 inhibition assays were performed in outsourcing, by a CRO company, Shanghai Medicilon Inc. (Shanghai, China). […] Briefly, PARP-1 or PARP-2 biotinylated substrate was incubated with compounds or solvent control at varying concentrations and an assay buffer containing the PARP-1 or PARP-2 enzyme."}, "[2]": {"system": "MDA-MB-436 (a BRCA-1-mutated breast cancer cell line)", "assay": "Cell proliferation assay, three-day, CellTiter-Glo, MDA-MB-436", "format": "cell-based", "conditions": "for inhibition at 0.00508 µM: MDA-MB-436, MDA-MB-436, Conc. 0.00508 uM; for inhibition at 0.0152 µM: MDA-MB-436, MDA-MB-436, Conc. 0.0152 uM; for inhibition at 0.0457 µM: MDA-MB-436, MDA-MB-436, Conc. 0.0457 uM; for inhibition at 0.41 µM: MDA-MB-436, MDA-MB-436, Conc. 0.41 uM; for inhibition at 1.23 µM: MDA-MB-436, MDA-MB-436, Conc. 1.23 uM; for inhibition at 3.7 µM: MDA-MB-436, MDA-MB-436, Conc. 3.70 uM", "method": "(§2) A three-day assay was conducted. A cell suspension was prepared. Cell density was counted by an automated cell counter and then diluted to the required density, according to seeding density. 50 μL cells were seeded into 384-well plate in growth medium according to the plate map. The cells were incubated at 37 °C, 5% CO2 overnight.\n(§3) 200× compound solution in DMSO was prepared and diluted with growth medium to 26× final concentration by addition of 26 μL 200× compounds to 174 μL growth medium. Then 2 μL of diluted compound solution was added to cells and the cell was incubated at 37 °C, 5% CO2 for 72 h.\n(§4) The assay plate was equilibrated to room temperature prior to measurement. 15 μL of CellTiter-Glo Reagent was added into each well and the contents were mixed for 2 min on an orbital shaker to induce cell lysis. The cells were incubated at room temperature for 60 min to stabilize luminescent signal. Luminescence was recorded on the Envision system."}, "[3]": {"biological_target": "T2, PARP-2 (Homo sapiens, UniProt Q9UGN5)", "T2 construct": "purchased BPS Bioscience 80552", "T2 sequence (Q9UGN5 whole entry)": "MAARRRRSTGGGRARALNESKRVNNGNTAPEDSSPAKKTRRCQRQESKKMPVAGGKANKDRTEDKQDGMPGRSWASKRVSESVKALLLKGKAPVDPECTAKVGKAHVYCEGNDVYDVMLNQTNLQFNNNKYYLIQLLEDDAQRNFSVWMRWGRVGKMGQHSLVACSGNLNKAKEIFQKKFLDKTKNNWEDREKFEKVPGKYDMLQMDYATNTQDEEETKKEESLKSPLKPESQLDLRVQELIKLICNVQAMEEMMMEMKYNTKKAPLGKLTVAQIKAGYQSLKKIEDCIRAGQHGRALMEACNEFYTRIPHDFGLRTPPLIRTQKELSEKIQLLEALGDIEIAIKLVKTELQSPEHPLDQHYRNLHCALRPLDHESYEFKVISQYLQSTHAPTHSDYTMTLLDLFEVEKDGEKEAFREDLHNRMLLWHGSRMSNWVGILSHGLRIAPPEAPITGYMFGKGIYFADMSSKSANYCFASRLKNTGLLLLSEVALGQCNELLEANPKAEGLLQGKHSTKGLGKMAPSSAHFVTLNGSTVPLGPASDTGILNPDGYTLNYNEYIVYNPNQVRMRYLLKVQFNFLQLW", "assay": "PARP-2 inhibition assay (PARP-2 Chemiluminescent Assay Kit, BPS Bioscience)", "format": "biochemical", "conditions": "10 nM compound", "method": "as §1"}, "[4]": {"system": "CAPAN-1 (a BRCA-2-mutated pancreatic cancer cell line)", "assay": "Cell proliferation assay, three-day, CellTiter-Glo, CAPAN-1", "format": "cell-based", "conditions": "for inhibition at 0.00508 µM: CAPAN-1, 0.00508 uM; for inhibition at 0.0152 µM: CAPAN-1, 0.0152 uM; for inhibition at 0.0457 µM: CAPAN-1, 0.0457 uM; for inhibition at […]: CAPAN-1, 0.14 uM; for inhibition at 0.41 µM: CAPAN-1, 0.41 uM; for inhibition at 1.23 µM: CAPAN-1, 1.23 uM; for inhibition at 3.7 µM: CAPAN-1, 3.70 uM; for inhibition at 11.11 µM: CAPAN-1, Conc. 11.11 uM; for inhibition at 33.33 µM: CAPAN-1, Conc. 33.33 uM; for inhibition at 100 µM: CAPAN-1, Conc. 100.00 uM", "method": "as §2, §3, §4"}, "[5]": {"conditions": "Homo sapiens, replicate 1, read-out: Inh % 1"}, "[6]": {"conditions": "Homo sapiens, replicate 2, read-out: Inh % 2"}, "[7]": {"conditions": "CAPAN-1, curve fit of Inh %, plate 1"}}, "note": "pIC50: −log10 of the molar value. Like-named read-outs stand apart in the source and are kept apart here."}
{"smiles": "NC(=O)c1cccc2[nH]c(C3CCN(CC(=O)Nc4ccccc4)C3)nc12", "note": "(centres unmarked) [Compound 5ca, 2-(1-(2-Oxo-2-(phenylamino)ethyl)pyrrolidin-3-yl)-1H-benzo[d]imidazole-4-carboxamide]", "values": [{"measurement": "inhibition at 0.01 µM", "setting": "[1]; supplement sheet, read-out: 10 nM inhibition% PAPR-1", "result": 17.6, "unit": "%"}, {"measurement": "inhibition at 0.01 µM", "setting": "[1]; read-out: PARP-1 Inhibition % (10 nM)", "result": 17.6, "unit": "%"}, {"measurement": "inhibition at 0.00508 µM", "setting": "[2]; [5]", "result": -8.8, "unit": "%"}, {"measurement": "inhibition at 0.00508 µM", "setting": "[2]; [6]", "result": -5.8, "unit": "%"}, {"measurement": "inhibition at 0.0152 µM", "setting": "[2]; [5]", "result": -0.8, "unit": "%"}, {"measurement": "inhibition at 0.0152 µM", "setting": "[2]; [6]", "result": -6.8, "unit": "%"}, {"measurement": "inhibition at 0.0457 µM", "setting": "[2]; [5]", "result": -1.6, "unit": "%"}, {"measurement": "inhibition at 0.0457 µM", "setting": "[2]; [6]", "result": -6.8, "unit": "%"}, {"measurement": "inhibition at 0.41 µM", "setting": "[2]; [5]", "result": 2.8, "unit": "%"}, {"measurement": "inhibition at 0.41 µM", "setting": "[2]; [6]", "result": -7.6, "unit": "%"}, {"measurement": "inhibition at 1.23 µM", "setting": "[2]; [5]", "result": 5.5, "unit": "%"}, {"measurement": "inhibition at 1.23 µM", "setting": "[2]; [6]", "result": -1.8, "unit": "%"}, {"measurement": "inhibition at 3.7 µM", "setting": "[2]; [5]", "result": 10.4, "unit": "%"}, {"measurement": "inhibition at 3.7 µM", "setting": "[2]; [6]", "result": 0.639, "unit": "%"}, {"measurement": "inhibition at 11.11 µM", "setting": "[2]; Homo sapiens, MDA-MB-436, MDA-MB-436, Conc. 11.11 uM, duplicate wells (Inh % 1, Inh % 2), read-out: Inh %", "result": 15.1, "unit": "%"}, {"measurement": "inhibition at 33.33 µM", "setting": "[2]; Homo sapiens, MDA-MB-436, MDA-MB-436, Conc. 33.33 uM, duplicate wells (Inh % 1, Inh % 2), read-out: Inh %", "result": 68.9, "unit": "%"}, {"measurement": "inhibition at 100 µM", "setting": "[2]; Homo sapiens, MDA-MB-436, MDA-MB-436, Conc. 100.00 uM, duplicate wells (Inh % 1, Inh % 2), read-out: Inh %", "result": 93.3, "unit": "%"}, {"measurement": "pIC50", "setting": "[2]; Homo sapiens, MDA-MB-436, 72 h, CellTiter-Glo, read-out: MDA-MB-436 IC50", "result": 4.64}, {"measurement": "pIC50", "setting": "[2]; Homo sapiens, MDA-MB-436, 72 h, supplement Summary sheet, read-out: IC50", "result": 4.64}, {"measurement": "IC50", "setting": "[2]; Homo sapiens, MDA-MB-436, curve fit list, no unit in the cell, concentration in uM, read-out: IC50", "result": 22.9, "unit": "µM"}, {"measurement": "Inh %", "setting": "[2]; MDA-MB-436, Conc. 11.11 uM, duplicate wells (Inh % 1, Inh % 2)", "result": 9.5, "unit": "%"}, {"measurement": "Inh %", "setting": "[2]; MDA-MB-436, Conc. 33.33 uM, duplicate wells (Inh % 1, Inh % 2)", "result": 56.4, "unit": "%"}, {"measurement": "Inh %", "setting": "[2]; MDA-MB-436, Conc. 100.00 uM, duplicate wells (Inh % 1, Inh % 2)", "result": 81.3, "unit": "%"}, {"measurement": "Bottom", "setting": "[2]; MDA-MB-436, curve fit parameter (Inh %)", "result": -3.40}, {"measurement": "Top", "setting": "[2]; MDA-MB-436, curve fit parameter (Inh %), '= 100.0' is a constrained value", "result": 92.23}, {"measurement": "LogIC50", "setting": "[2]; MDA-MB-436, curve fit, concentration axis Log (uM)", "result": 1.36}, {"measurement": "inhibition at 0.01 µM", "setting": "[3]; supplement sheet, read-out: 10 nM inhibition% PAPR-2", "result": 34.5, "unit": "%"}, {"measurement": "inhibition at 0.01 µM", "setting": "[3]; read-out: PARP-2 Inhibition % (10 nM)", "result": 34.5, "unit": "%"}, {"measurement": "Bottom", "setting": "[4]; [7]", "result": 11.48}, {"measurement": "HillSlope", "setting": "[4]; [7]", "result": 1.045}, {"measurement": "Top", "setting": "[4]; [7]", "result": "= 100.0"}, {"measurement": "LogIC50", "setting": "[4]; CAPAN-1, curve fit, plate 1", "result": "2.027 Log (uM)"}, {"measurement": "pIC50", "setting": "[4]; Homo sapiens, CAPAN-1, 72 h, CellTiter-Glo, read-out: CAPAN-1 IC50", "result": "< 4.00"}, {"measurement": "inhibition at 0.00508 µM", "setting": "[4]; [5]", "result": -2.6, "unit": "%"}, {"measurement": "inhibition at 0.00508 µM", "setting": "[4]; [6]", "result": 19.1, "unit": "%"}, {"measurement": "inhibition at 0.0152 µM", "setting": "[4]; [5]", "result": -2.3, "unit": "%"}, {"measurement": "inhibition at 0.0152 µM", "setting": "[4]; [6]", "result": 9.8, "unit": "%"}, {"measurement": "inhibition at 0.0457 µM", "setting": "[4]; [5]", "result": 6.6, "unit": "%"}, {"measurement": "inhibition at 0.0457 µM", "setting": "[4]; [6]", "result": 22, "unit": "%"}, {"measurement": "inhibition at […]", "setting": "[4]; [5]", "result": 7.4, "unit": "%"}, {"measurement": "inhibition at […]", "setting": "[4]; [6]", "result": 15.6, "unit": "%"}, {"measurement": "inhibition at 0.41 µM", "setting": "[4]; [5]", "result": 22.5, "unit": "%"}, {"measurement": "inhibition at 0.41 µM", "setting": "[4]; [6]", "result": 10.9, "unit": "%"}, {"measurement": "inhibition at 1.23 µM", "setting": "[4]; [5]", "result": 21.1, "unit": "%"}, {"measurement": "inhibition at 1.23 µM", "setting": "[4]; [6]", "result": 9.6, "unit": "%"}, {"measurement": "inhibition at 3.7 µM", "setting": "[4]; [5]", "result": 8.2, "unit": "%"}, {"measurement": "inhibition at 3.7 µM", "setting": "[4]; [6]", "result": 19.9, "unit": "%"}, {"measurement": "inhibition at 11.11 µM", "setting": "[4]; [5]", "result": 22.1, "unit": "%"}, {"measurement": "inhibition at 11.11 µM", "setting": "[4]; [6]", "result": 20.4, "unit": "%"}, {"measurement": "inhibition at 33.33 µM", "setting": "[4]; [5]", "result": 29.2, "unit": "%"}, {"measurement": "inhibition at 33.33 µM", "setting": "[4]; [6]", "result": 28.3, "unit": "%"}, {"measurement": "inhibition at 100 µM", "setting": "[4]; [5]", "result": 59.9, "unit": "%"}, {"measurement": "inhibition at 100 µM", "setting": "[4]; [6]", "result": 51.1, "unit": "%"}]}
